From patent publication US11912679B2, “Aryl alkynamide derivatives” (Astellas Pharma, Inc., priority 2022, dated 2024)

Assays:
IFNβ production = assay: Test on IFNβ production in mice plasma (DMXAA-induced); format: in vivo; details: male C57BL/6J mice, 1 mg/kg oral, DMXAA 20 mg/kg i.p. after 1 hour, plasma 4 hours later
Protocol: Male C57BL/6J mice (8-12-weeks-old) were administered orally either vehicle or 1 mg/kg of test compounds. After 1 hour, 5,6-Dimethylxanthenone-4-acetic acid (DMXAA) (BLD Pharmatech Ltd, BD126695) was administered intraperitoneally at a dose of 20 mg/kg. Four hours later, the mice were euthanized, and the plasma was collected. Plasma concentration of IFNβ was measured by an enzyme-linked immunosorbent assay method using an AlphaLISA Mouse IFNβ Detection Kit (Parkin Elmer, AL586C), and the inhibition ratio to the vehicle administration group was calculated.

IRF pathway of THP-1 = assay: Test on the activity of IRF pathway of THP-1 (THP1-Dual reporter cells stimulated with 2'3'-cGAMP); format: cell-based; details: Homo sapiens, PMA-treated, 2'3'-cGAMP 5 ug/mL, QUANTI-Luc readout, read-out: IC50 of inhibition of the activity of IRF pathway
Summary of the method: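 PMA-differentiated THP1-Dual cells (0.3 uM PMA, 1 day) pre-incubated with compound 1 h at room temperature, then stimulated with 2′3′-cGAMP (final 5 ug/mL) overnight at 37 °C. IRF-driven secreted luciferase read with QUANTI-Luc; inhibition normalized to unstimulated (100%) and cGAMP-only (0%) wells, IC50 by sigmoid non-linear regression.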

saliva production = assay: Test on drug-induced Sjogren's syndrome-like salivary dysfunction in mice; format: in vivo; details: female C57BL/6J mice, DMXAA 20 mg/kg s.c. four times weekly, test compound oral once a day for 8 days
Protocol: Female C57BL/6J mice (8-10-weeks-old) were injected subcutaneously with 20 mg/kg of DMXAA or its vehicle, 5% NaHCO3, four times at weekly intervals. From the day after the last DMXAA challenge, mice were orally administered the test compound or its vehicle once a day for 8 days. On the following day, saliva was collected from mice using a cotton swab under awake conditions, and saliva weight during 15 min was measured and evaluated as an indicator of salivary gland function.

## NC(=O)C1CCN(C(=O)C#Cc2ccc(-c3ccccc3)c(C(F)(F)F)c2)CC1 [Example 34, 1-{3-[2-(trifluoromethyl)[1,1′-biphenyl]-4-yl]prop-2-ynoyl}piperidine-4-carboxamide]
IFNβ production
  Inh (%): inhibition ratio of the production of IFNβ to the vehicle administration group: 90%
IRF pathway of THP-1
  IC50: 230 nM
Saliva production
  saliva production (saliva weight during 15 min): significantly improved saliva production

## N=S1(=O)CCN(C(=O)C#Cc2ccc(-c3ccccc3)c(C(F)(F)F)c2)CC1 [Example 99, 1-imino-4-{3-[2-(trifluoromethyl)[1,1′-biphenyl]-4-yl]prop-2-ynoyl}-1λ^6-thiomorpholin-1-one]
IFNβ production
  Inh (%): inhibition ratio of the production of IFNβ to the vehicle administration group: 68%
IRF pathway of THP-1
  IC50: 102 nM
Saliva production
  saliva production (saliva weight during 15 min): significantly improved saliva production

## O=C(C#Cc1ccc(-c2ccccc2)c(C(F)(F)F)c1)N1C[C@@H](O)[C@@H](O)C1 [Example 33, 1-[(3R,4S)-3,4-dihydroxypyrrolidin-1-yl]-3-[2-(trifluoromethyl)[1,1′-biphenyl]-4-yl]prop-2-yn-1-one]
IFNβ production
  Inh (%): inhibition ratio of the production of IFNβ to the vehicle administration group: 92%
IRF pathway of THP-1
  IC50: 136 nM
Saliva production
  saliva production (saliva weight during 15 min): significantly improved saliva production
